Measurements from patent US20130079749A1, “Modular Drug Delivery System for Minimizing Trauma During and After Insertion of a Cochlear Lead” (ADVANCED BIONICS, LLC, priority 2007, published 2013).

Tests used:
[1] = Solubility of dexamethasone forms; assay type: physicochemical
[2] = In-vivo comparison of DXMb and DEX salt delivered over a week
Procedure: In one study performed by the Applicants, a comparison of DXMb and DEX salt was performed in an in-vivo model over the prior of a week. […] This surprising potency allows for increased therapeutic effects without increasing the volume of the drug or the size of the intracochlear lead.

[3] = system: auditory hair cells; test: Organ of Corti photomicrographs thirty days after electrode insertion trauma; assay type: in vivo, guinea pig; conditions: lower middle turn of cochlea, thirty days after EIT, FIG. 11 microphotograph D
Source text: The efficacy of DXMb was also studied by the Applicants in relationship to preserving residual hearing and internal nerve structures within the cochlea. In the study performed by the Applicants, 88 ears of 44 pigmented guinea pigs of 250 to 300 grams were randomly assigned to one of four groups as follows: group 1 corresponded to the contralateral, unoperated ears from groups 2 to 4 animals (n=44). Group 2 (n=15): electrode insertion trauma (EIT); these ears underwent EIT only via a cochleostomy and then immediate closure. Group 3 (n=15): EIT+artificial perilymph (EIT+AP) treated ears received EIT and immediately after trauma, insertion of a microcatheter into the cochleostomy site with AP perfused into the scala tympani (ST) for a period of 8 days. Group 4 (n=14): EIT dexamethasone base (EIT=DXMb) treated animals underwent EIT followed immediately by insertion of a microcatheter into the cochleostomy with ST perfusion of DXMb ([…]) in AP for a period of 8 days. Hearing measurements were performed before surgery, as well as on post-EIT days 0, 3, 7, 14, and 30. Tone bursts of 0.5, 1, 4, and 16 kHz were delivered to the ear at a rate of 29 Hz. The intensity of the stimulation was decreased by 10 dB sound pressure level (SPL) decrements until no auditory brainstem response was identified.
The organization of hair cells is in three distinct rows. […]

C[C@@H]1C[C@H]2[C@@H]3CCC4=CC(=O)C=C[C@]4(C)[C@@]3(F)[C@@H](O)C[C@]2(C)[C@@]1(O)C(=O)CO [DXMb, dexamethasone base]
solubility in aqueous preparations ([1]; aqueous preparations): limited solubility in aqueous preparations
solubility in organic solvents ([1]; organic solvents): highly soluble in organic solvents
effectiveness compared with DEX salt ([2]; DXMb 1 μL/hr at 70 μL/ml vs DEX salt 100 μL/ml at 1 μL/hr, in-vivo model, one week): just as effective
potency compared with salt forms of dexamethasone ([2]; administered into the intracochlear space after implantation surgeries): surprisingly more potent than salt forms of dexamethasone
hair cells and hair cell structure [3]: substantially similar to that of the control group
